For data set [1], the system named is pear (variety: Niju-seiki). Particulars: concentration of spray liquid 500 ppm.
For data set [2], the system named is pear alternaria leaf spot fungus (Alternaria kikuchiana). In kind it is in vivo. Particulars: pear black spot; concentration of spray liquid 500 ppm; three days after the inoculation.
The test system of data set [3] is tomato (variety: Sekai-ichi).
In data set [4] the test system is rice brown spot fungus (Cochliobolus miyabeanus). The experiment in a line: Test Example 2: control effect on paddy rice brown spot (spray on potted seedlings). Particulars: Table 3, spray liquid 500 ppm, inoculation one day after spraying, lesions per leaf 5 days after inoculation.
The subject of data set [5] is rice seeds (variety: Asominori). The experiment in a line: Test Example 10: degree of phytotoxicity on rice after seed treatment (injury rating). Particulars: concentration 1000 ppm.
Data set [6] concerns paddy rice (variety: Asahi).
Data set [7] relates to rice seeds. The experiment in a line: Test Example 9: degree of phytotoxicity on rice after seed treatment (injury rating). Particulars: concentration 1000 ppm.
Data set [8] relates to rice brown spot fungus. The experiment in a line: Test Example 10: seed treatment against brown spot of rice (seed disinfection ratio). The note with it: concentration 1000 ppm, seed immersion, 25 days after the seeding.
Data set [9] concerns Gibberella fujikuroi. The experiment in a line: Test Example 9: seed treatment against "Bakanae" disease of rice (seed disinfection ratio). The note with it: concentration 1000 ppm, seed immersion at 15°C. for 24 hours, 32 days after the seeding.
The subject of data set [10] is haricot sclerotinia rot (Sclerotinia sclerotiorum). The experiment in a line: Test Example 5: control effect on haricot sclerotinia rot (spray, detached leaflets). The note with it: Table 6, spray liquid 200 ppm, lesion diameter 3 days after inoculation.
Protocol: On the following day, the first trifoliate leaf was cut off and the each leaflet of trifoliate leaf were placed in a 15 cm petri dish kept under moist conditions by placing a wet filter paper thereon and were inoculated on the center portion of each leaflet with a fungus-containing agar segment obtained by perforating by means of a cork borer of 8 mm in diameter an edge of a colony of a haricot sclerotinia rot (Sclerotinia sclerotiorum) cultured previously at 20°C. for 2 days in PSA medium. Three days after inoculation, the lesion diameter formed was measured by means of slide calipers and the control value (%) was obtained according to the following equation.
The subject of data set [11] is hariot (variety: Taisho Kintoki).
The subject of data set [12] is Phytophthora infestans. In kind it is in vivo.
The test system of data set [13] is cucumber downy mildew fungus (Pseudoperonospora cubensis). In kind it is in vivo. Particulars: for Control value: Table 7, spray liquid 500 ppm, percent lesion area 5 days after inoculation.
Data set [14] deals with cucumber (variety: Sagami Hanjiro).
In data set [15] the test system is Pellicularia sasakii. The format is in vivo. The note with it: Table 4, spray liquid 500 ppm, paddy rice sheath blight.
For data set [16], the system named is paddy rice. The note with it: Table 4, spray liquid 500 ppm.
The mark [17] stands for this setting: Table 3, spray liquid 500 ppm, paddy rice.
[18] abbreviates: Table 6, spray liquid 200 ppm, haricot.

Where two headings read alike, the source gives them in different places.

For `O=C1C2CC=CCC2C(=O)N1SC(Cl)(Cl)Cl` (stereo not shown) [Captan, reference compound], the Degree of phytotoxicity in data set [1] was determined as 0. Further, the “Control value (%)” value in data set [2] amounted to 90%.
`CCCOC(=O)c1sc(C(=O)OCCC)c(OC(C)=O)c1OC(C)=O` [Compound No. 3, 3,4-Diacetoxy-2,5-di-n-propoxycarbonylthiopene]: the Degree of phytotoxicity in [3] (in vivo), in [5], in [6] (in vivo), in data set [7] and in [11] (in vivo) was 0 throughout. Also, the Control value in data set [4] was found to be 100%; in [10] it was 100%; in [12] (in vivo), 93%. Also, the “Seed disinfection ratio (%)” value in data set [8] and in data set [9] was 100% throughout.
As for `CCOC(=O)c1sc(C(=O)OCC)c(OC(=O)OC)c1OC(=O)OC` [Compound No. 22, 3,4-Dimethoxycarbonyloxy-2,5-dicarbethoxythiophene], the Degree of phytotoxicity is reported as 0 in [3] (Table 5, spray liquid 500 ppm, tomato); 0 in [5]; 0 in data set [6] (setting [17]); 0 in data set [7]; 0 in data set [14] (Table 7, spray liquid 500 ppm); 0 in data set [11] (setting [18]). The Control value in data set [4] is reported as 100%; in data set [13], 100%; in data set [10], 95%; in data set [12] (Table 5, spray liquid 500 ppm, tomato late blight, inoculation 3 days after spraying, observed 3 days after inoculation) it was 100%. The “Seed disinfection ratio (%)” value is on record as 100% in data set [8] and 97% in [9].
For the compound `CCOC(=O)c1sc(C(=O)OCC)c(OC(=O)NC)c1OC(=O)NC` [Compound No. 50, 3,4-Bis(N-methylcarbamoyloxy)-2,5-dicarbethoxy-thiophene], the Control value in data set [4] and in data set [13] was 100% each time. Moreover, the Degree of phytotoxicity in data set [5] is listed as 0; in data set [6] (setting [17]) it was 0; in data set [7], 0; in data set [14] (Table 7, spray liquid 500 ppm), 0. Moreover, the “Seed disinfection ratio (%)” value in [8] and in data set [9] was 100% throughout.
In the case of `CCOCCOC(=O)c1sc(C(=O)OCCOCC)c(O)c1O` [Compound No. 159, 3,4-Dihydroxy-2,5-di-2'-ethoxyethoxycarbonyl-thiophene], the Degree of phytotoxicity in [3] (in vivo) and in data set [6] (in vivo) was 0 in each case. Further, the values for the Control value in [4] and in data set [12] (in vivo) were 96% and 99%, respectively.
In the case of `CCOCCOC(=O)c1sc(C(=O)OCCOCC)c(OC(=O)NC)c1OC(=O)NC` [Compound No. 161, 3,4-Di-methylcarbamoyloxy-2,5-di-2'-ethoxyethoxycarbonylthiophene], the Control value in data set [4] was determined as 100%. The same compound showed a Degree of phytotoxicity in [6] (in vivo) of 0.
`COCCOC(=O)c1sc(C(=O)OCCOC)c(OC(=O)COC)c1OC(=O)COC` [Compound No. 170, 3,4-Di-methoxymethylcarbonyloxy-2,5-di-2'-methoxyethoxycarbonylthiophene] came in with a Control value in data set [13] of 93%. The compound further displayed a Degree of phytotoxicity in data set [14] (Table 7, spray liquid 500 ppm) of 0.
The like results for `COC(=O)Oc1c(C(=O)OCc2ccccc2)sc(C(=O)OCc2ccccc2)c1OC(=O)OC` [Compound No. 179, 3,4-Di-methoxycarbonyloxy-2,5-dibenzyloxycarbonylthiophene] were, in that order, 100% and 0.
`CCNC(=O)Oc1c(C#N)sc(C(=O)OC)c1OC(=O)NCC` [Compound No. 208, 3,4-Di(N-ethylcarbamoyloxy)-2-cyano-5-methoxycarbonylthiophene]: the Degree of phytotoxicity in [1] was 0; in [5], 0; in data set [14] (Table 7, spray liquid 500 ppm), 0. Besides, the Control value in data set [13] turned out to be 100%. In addition, the “Control value (%)” value in data set [2] is recorded as 78%. Further, in data set [8], the “Seed disinfection ratio (%)” value is 97%.
`CCOC(=O)c1sc(C#N)c(O)c1O` [Compound No. 210, 3,4-Dihydroxy-2-cyano-5-carbethoxythiophene] gave a Degree of phytotoxicity in data set [1] of 0. Further, in data set [2], the “Control value (%)” value is listed as 100%.
With `CCOC(=O)c1sc(C#N)c(OC(C)=O)c1OC(C)=O` [Compound No. 212, 3,4-Di-acetoxy-2-cyano-5-carbethoxythiophene], the Degree of phytotoxicity in data set [1] amounted to 0. Further, in [2], the “Control value (%)” value is given as 100%.
Take `CCOC(=O)Oc1c(C#N)sc(C(=O)OCC)c1OC(=O)OCC` [Compound No. 216, 3,4-Di-(ethoxycarbonyloxy)-2-cyano-5-carbethoxythiophene]: the Degree of phytotoxicity in [5] and in [11] (setting [18]) was 0 in each case. Also, the “Seed disinfection ratio (%)” value in data set [8] was 100%. In data set [10], the Control value was 75%.
Regarding `CCOC(=O)c1sc(C(=O)OCC)c(OC(=O)c2cccs2)c1OC(=O)c1cccs1` [Compound No. 229, 3,4-Di-(2'-thenoyloxy)-2,5-dicarbethoxythiophene], the Control value in data set [13] turned out to be 100%. For the same compound, the Degree of phytotoxicity in data set [14] (Table 7, spray liquid 500 ppm) was 0.
For the compound `COC(=O)c1sc(C(=O)c2ccccc2)c(O)c1O` [Compound No. 246, 3,4-Dihydroxy-2-carbomethoxy-5-benzoylthiophene], in [10], the Control value amounted to 100%. Moreover, in [11] (setting [18]), the Degree of phytotoxicity stood at 0.
In the same order, the values of `CCOC(=O)c1sc(C(=O)c2ccccc2)c(O)c1O` [Compound No. 247, 3,4-Dihydroxy-2-carbethoxy-5-benzoylthiophene] are 100% and 0.
In the same order, the values of `CCOC(=O)c1sc(C(=O)c2ccccc2)c(OC(C)=O)c1OC(C)=O` [Compound No. 249, 3,4-Diacetoxy-2-carbethoxy-5-benzoylthiophene] are 100% and 0.
In the same order, the values of `CCOC(=O)c1sc(C(=O)c2ccccc2)c(OC(=O)OC)c1OC(=O)OC` [Compound No. 252, 3,4-Di(methoxycarbonyloxy)-2-carbethoxy-5-benzoylthiophene] are 90% and 0.
`CCOC(=O)c1sc(C(=O)c2ccc(C)cc2)c(OC(=O)N(C)C)c1OC(=O)N(C)C` [Compound No. 287, 3,4-Di(N,N-dimethylcarbamoyloxy)-2-carbethoxy-5-(p-methylbenzoyl)-thiophene] had a Control value in data set [10] of 90%. Further, the Degree of phytotoxicity in data set [11] (setting [18]) is given as 0.
Compound `CCOCCC(=O)Oc1c(C(=O)OCC)sc(C(=O)OCC)c1OC(=O)CCOCC` [Compound No. 295, 3,4-Di(2'-ethoxyethylcarbonyloxy)-2,5-dicarbethoxy-thiophene] had a Control value in data set [15] of 94%. The compound further yielded a Degree of phytotoxicity in data set [16] of 0.
Take `CN(C)C(=S)SSC(=S)N(C)C` [TMTD, reference compound]: the Degree of phytotoxicity in data set [5] turned out to be 0. For the same compound, the “Seed disinfection ratio (%)” value in [8] is 51%.
On to `N#Cc1c(Cl)c(Cl)c(Cl)c(C#N)c1Cl` [TPN, reference compound], for which, in data set [13] (concentration of spray liquid 500 ppm, five days after the inoculation), the “Control value (%)” value is 100%. The Degree of phytotoxicity in [14] (concentration of spray liquid 500 ppm) is listed as 0.
In data set [10], `COC(=O)NC(=S)Nc1ccccc1NC(=S)NC(=O)OC` [Thiophanate-methyl, reference compound] had a Control value of 70%.
Take `OCCN1CN(CCO)CN(CCO)C1` [Triazine, reference compound]: the Control value in data set [4] came out at 90%. In addition, the Degree of phytotoxicity in data set [6] (setting [17]) is listed as 0.
As for `CNC(=O)Oc1c(C#N)sc(C(=O)OC)c1OC(=O)NC` [compound 207], the Degree of phytotoxicity in data set [1] is reported as 0; in data set [5] it was 0; in data set [14] (Table 7, spray liquid 500 ppm) it was 0. The Control value in [13] worked out at 100%. The “Control value (%)” value in [2] came out at 92%. The “Seed disinfection ratio (%)” value in data set [8] is recorded as 96%.
As to `CCOC(=O)c1sc(C#N)c(O)c1O` [compound 211], in data set [13], the Control value was 100%. Further, the Degree of phytotoxicity in data set [14] (Table 7, spray liquid 500 ppm) is recorded as 0.
As to `CCOC(=O)c1sc(C#N)c(OC(=O)NC)c1OC(=O)NC` [compound 213], the Degree of phytotoxicity was found to be 0 in data set [1]; 0 in data set [5]; 0 in [14] (Table 7, spray liquid 500 ppm). The Control value in data set [13] is 100%. Moreover, in data set [2], the “Control value (%)” value amounted to 92%. Further, the “Seed disinfection ratio (%)” value in data set [8] was found to be 94%.

For the origin of these results see patent publication EP0032748B1, “Thiophene derivatives” (UBE INDUSTRIES, LTD., priority 1980, dated 1981).
